Data reported in ChEMBL document CHEMBL1151757, “Synthesis, radiosynthesis, and biological evaluation of fluorine-18-labeled 2beta-carbo(fluoroalkoxy)-3beta-(3'-((Z)-2-haloethenyl)phenyl)nortropanes: candidate radioligands for in vivo imaging of the serotonin transporter with positron emission tomography” (J Med Chem, 2008).

Legend:
[1] = Drug uptake in anesthetized cynomolgus monkey brain cerebellum after 155 mins postinjection; assay type: ADME, organism-based, Macaca fascicularis; settings: in vivo
Medulla [2] = assay: Drug uptake in anesthetized cynomolgus monkey brain medulla after 182.5 mins postinjection; assay type: ADME, organism-based, Macaca fascicularis; settings: in vivo
[3] = Ratio of drug uptake in frontal lobe to cerebellum in anesthetized cynomolgus monkey after 35 mins postinjection; assay type: ADME, organism-based, Macaca fascicularis; settings: in vivo
Caudate [4] = assay: Drug uptake in anesthetized cynomolgus monkey brain caudate after 145 mins postinjection; assay type: ADME, organism-based, Macaca fascicularis, Caudate nucleus; settings: in vivo
Midbrain [5] = assay: Drug uptake in anesthetized cynomolgus monkey brain midbrain after 192.5 mins postinjection; assay type: ADME, organism-based, Macaca fascicularis; settings: in vivo
[6] = Drug uptake in anesthetized cynomolgus monkey brain cerebellum after 175 mins postinjection; assay type: ADME, organism-based, Macaca fascicularis; settings: in vivo
[7] = Ratio of drug uptake in putamen to cerebellum in anesthetized cynomolgus monkey after 235 mins postinjection; assay type: ADME, organism-based, Macaca fascicularis; settings: in vivo
Medulla [8] = assay: Drug uptake in anesthetized cynomolgus monkey brain medulla after 235 mins postinjection; assay type: ADME, organism-based, Macaca fascicularis; settings: in vivo
Caudate [9] = assay: Drug uptake in anesthetized cynomolgus monkey brain caudate after 9.5 mins postinjection; assay type: ADME, organism-based, Macaca fascicularis, Caudate nucleus; settings: in vivo
Putamen [10] = assay: Drug uptake in anesthetized cynomolgus monkey brain putamen after 105 mins postinjection; assay type: ADME, organism-based, Macaca fascicularis; set-up: unit not given here; settings: in vivo, 1.75 h
[11] = Drug uptake in anesthetized cynomolgus monkey brain frontal lobe after 215 mins postinjection; assay type: ADME, organism-based, Macaca fascicularis; settings: in vivo
Putamen [12] = assay: Drug uptake in anesthetized cynomolgus monkey brain putamen after 12.5 mins postinjection; assay type: ADME, organism-based, Macaca fascicularis; set-up: unit not given here; settings: in vivo
[13] = Drug uptake in anesthetized cynomolgus monkey brain frontal lobe after 12.5 mins postinjection; assay type: ADME, organism-based, Macaca fascicularis; settings: in vivo
Pons [14] = assay: Drug uptake in anesthetized cynomolgus monkey brain pons after 135 mins postinjection; assay type: ADME, organism-based, Macaca fascicularis; settings: in vivo, 2.25 h
Thalamus [15] = assay: Drug uptake in anesthetized cynomolgus monkey brain thalamus after 235 mins postinjection; assay type: ADME, organism-based, Macaca fascicularis; set-up: unit not given here; settings: in vivo
Midbrain [16] = assay: Drug uptake in anesthetized cynomolgus monkey brain midbrain after 27.5 mins postinjection; assay type: ADME, organism-based, Macaca fascicularis; set-up: unit not given here; settings: in vivo
Midbrain [17] = assay: Drug uptake in anesthetized cynomolgus monkey brain midbrain after 55 mins postinjection; assay type: ADME, organism-based, Macaca fascicularis; set-up: unit not given here; settings: in vivo
[18] = Drug uptake in anesthetized cynomolgus monkey brain cerebellum after 135 mins postinjection; assay type: ADME, organism-based, Macaca fascicularis; settings: in vivo, 2.25 h
Medulla [19] = assay: Drug uptake in anesthetized cynomolgus monkey brain medulla after 0.5 mins postinjection; assay type: ADME, organism-based, Macaca fascicularis; settings: in vivo
Putamen [20] = assay: Drug uptake in anesthetized cynomolgus monkey brain putamen after 1.5 mins postinjection; assay type: ADME, organism-based, Macaca fascicularis; settings: in vivo, 0.025 h
Thalamus [21] = assay: Drug uptake in anesthetized cynomolgus monkey brain thalamus after 115 mins postinjection; assay type: ADME, organism-based, Macaca fascicularis; set-up: unit not given here; settings: in vivo
Thalamus [22] = assay: Drug uptake in anesthetized cynomolgus monkey brain thalamus after 15.5 mins postinjection; assay type: ADME, organism-based, Macaca fascicularis; set-up: unit not given here; settings: in vivo
Midbrain [23] = assay: Drug uptake in anesthetized cynomolgus monkey brain midbrain after 2.5 mins postinjection; assay type: ADME, organism-based, Macaca fascicularis; set-up: unit not given here; settings: in vivo
Putamen [24] = assay: Drug uptake in anesthetized cynomolgus monkey brain putamen after 202.5 mins postinjection; assay type: ADME, organism-based, Macaca fascicularis; settings: in vivo, 3.375 h
[25] = Drug uptake in anesthetized cynomolgus monkey brain occipital lobe after 15.5 mins postinjection; assay type: ADME, organism-based, Macaca fascicularis; settings: in vivo
Medulla [26] = assay: Drug uptake in anesthetized cynomolgus monkey brain medulla after 1.5 mins postinjection; assay type: ADME, organism-based, Macaca fascicularis; settings: in vivo, 0.025 h
Putamen [27] = assay: Drug uptake in anesthetized cynomolgus monkey brain putamen after 235 mins postinjection; assay type: ADME, organism-based, Macaca fascicularis; settings: in vivo
Medulla [28] = assay: Drug uptake in anesthetized cynomolgus monkey brain medulla after 207.5 mins postinjection; assay type: ADME, organism-based, Macaca fascicularis; settings: in vivo
[29] = Ratio of drug uptake in occipital lobe to cerebellum in anesthetized cynomolgus monkey after 0.5 mins postinjection; assay type: ADME, organism-based, Macaca fascicularis; settings: in vivo
[30] = Ratio of drug uptake in putamen to cerebellum in anesthetized cynomolgus monkey after 45 mins postinjection; assay type: ADME, organism-based, Macaca fascicularis; settings: in vivo, 0.75 h
Medulla [31] = assay: Drug uptake in anesthetized cynomolgus monkey brain medulla after 202.5 mins postinjection; assay type: ADME, organism-based, Macaca fascicularis; settings: in vivo, 3.375 h
[32] = Ratio of drug uptake in occipital lobe to cerebellum in anesthetized cynomolgus monkey after 12.5 mins postinjection; assay type: ADME, organism-based, Macaca fascicularis; settings: in vivo
Thalamus [33] = assay: Drug uptake in anesthetized cynomolgus monkey brain thalamus after 187.5 mins postinjection; assay type: ADME, organism-based, Macaca fascicularis; settings: in vivo, 3.125 h
Medulla [34] = assay: Drug uptake in anesthetized cynomolgus monkey brain medulla after 35 mins postinjection; assay type: ADME, organism-based, Macaca fascicularis; settings: in vivo
Midbrain [35] = assay: Drug uptake in anesthetized cynomolgus monkey brain midbrain after 35 mins postinjection; assay type: ADME, organism-based, Macaca fascicularis; set-up: unit not given here; settings: in vivo
[36] = Drug uptake in anesthetized cynomolgus monkey brain occipital lobe after 95 mins postinjection; assay type: ADME, organism-based, Macaca fascicularis; settings: in vivo
[37] = Drug uptake in anesthetized cynomolgus monkey brain occipital lobe after 85 mins postinjection; assay type: ADME, organism-based, Macaca fascicularis; settings: in vivo
[38] = Ratio of drug uptake in medulla to cerebellum in anesthetized cynomolgus monkey after 165 mins postinjection; assay type: ADME, organism-based, Macaca fascicularis; settings: in vivo, 2.75 h
[39] = Ratio of drug uptake in occipital lobe to cerebellum in anesthetized cynomolgus monkey after 95 mins postinjection; assay type: ADME, organism-based, Macaca fascicularis; settings: in vivo
[40] = Ratio of drug uptake in midbrain to cerebellum in anesthetized cynomolgus monkey after 235 mins postinjection; assay type: ADME, organism-based, Macaca fascicularis; settings: in vivo
Pons [41] = assay: Drug uptake in anesthetized cynomolgus monkey brain pons after 85 mins postinjection; assay type: ADME, organism-based, Macaca fascicularis; settings: in vivo
[42] = Drug uptake in anesthetized cynomolgus monkey brain frontal lobe after 125 mins postinjection; assay type: ADME, organism-based, Macaca fascicularis; settings: in vivo
[43] = Ratio of drug uptake in midbrain to cerebellum in anesthetized cynomolgus monkey after 215 mins postinjection; assay type: ADME, organism-based, Macaca fascicularis; settings: in vivo
Pons [44] = assay: Drug uptake in anesthetized cynomolgus monkey brain pons after 197.5 mins postinjection; assay type: ADME, organism-based, Macaca fascicularis; settings: in vivo
[45] = Drug uptake in anesthetized cynomolgus monkey brain cerebellum after 3.5 mins postinjection; assay type: ADME, organism-based, Macaca fascicularis; settings: in vivo
Caudate [46] = assay: Drug uptake in anesthetized cynomolgus monkey brain caudate after 187.5 mins postinjection; assay type: ADME, organism-based, Macaca fascicularis, Caudate nucleus; settings: in vivo, 3.125 h
Putamen [47] = assay: Drug uptake in anesthetized cynomolgus monkey brain putamen after 192.5 mins postinjection; assay type: ADME, organism-based, Macaca fascicularis; settings: in vivo
Putamen [48] = assay: Drug uptake in anesthetized cynomolgus monkey brain putamen after 2.5 mins postinjection; assay type: ADME, organism-based, Macaca fascicularis; settings: in vivo
[49] = Ratio of drug uptake in caudate to cerebellum in anesthetized cynomolgus monkey after 0.5 mins postinjection; assay type: ADME, organism-based, Macaca fascicularis; settings: in vivo
Thalamus [50] = assay: Drug uptake in anesthetized cynomolgus monkey brain thalamus after 55 mins postinjection; assay type: ADME, organism-based, Macaca fascicularis; set-up: unit not given here; settings: in vivo
Thalamus [51] = assay: Drug uptake in anesthetized cynomolgus monkey brain thalamus after 145 mins postinjection; assay type: ADME, organism-based, Macaca fascicularis; set-up: unit not given here; settings: in vivo
[52] = Drug uptake in anesthetized cynomolgus monkey brain frontal lobe after 35 mins postinjection; assay type: ADME, organism-based, Macaca fascicularis; settings: in vivo
[53] = Ratio of drug uptake in putamen to cerebellum in awake rhesus monkey after 105 mins postinjection; assay type: ADME, organism-based, Macaca mulatta; settings: in vivo, 1.75 h
[54] = Ratio of drug uptake in midbrain to cerebellum in awake rhesus monkey after 7.5 mins postinjection; assay type: ADME, organism-based, Macaca mulatta; settings: in vivo, 0.125 h
[55] = Ratio of drug uptake in medulla to cerebellum in awake rhesus monkey after 4.5 mins postinjection; assay type: ADME, organism-based, Macaca mulatta; settings: in vivo, 0.075 h
[56] = Drug uptake in awake rhesus monkey brain midbrain after 55 mins postinjection; assay type: ADME, organism-based, Macaca mulatta; settings: in vivo
[57] = Ratio of drug uptake in midbrain to cerebellum in awake rhesus monkey after 85 mins postinjection; assay type: ADME, organism-based, Macaca mulatta; settings: in vivo
[58] = Drug uptake in awake rhesus monkey brain medulla after 55 mins postinjection; assay type: ADME, organism-based, Macaca mulatta; settings: in vivo
[59] = Ratio of drug uptake in frontal lobe to cerebellum in awake rhesus monkey after 35 mins postinjection; assay type: ADME, organism-based, Macaca mulatta; settings: in vivo
[60] = Drug uptake in awake rhesus monkey brain cerebellum after 25 mins postinjection; assay type: ADME, organism-based, Macaca mulatta; settings: in vivo
[61] = Drug uptake in awake rhesus monkey brain thalamus after 65 mins postinjection; assay type: ADME, organism-based, Macaca mulatta; settings: in vivo
[62] = Drug uptake in awake rhesus monkey brain caudate after 4.5 mins postinjection; assay type: ADME, organism-based, Macaca mulatta, Caudate nucleus; settings: in vivo, 0.075 h
[63] = Drug uptake in awake rhesus monkey brain cerebellum after 45 mins postinjection; assay type: ADME, organism-based, Macaca mulatta; settings: in vivo, 0.75 h

## O=C(OCCC[18F])C1C2CCC(CC1c1cccc(/C=C\Br)c1)N2 (stereo not given)
[1]
  Drug uptake: 2.62
Medulla [2]
  Drug uptake: 4.22
[3]
  Ratio: 0.7
Caudate [4]
  Drug uptake: 4.38
Midbrain [5]
  Drug uptake: 4.52
[6]
  Drug uptake: 2.45
[7]
  Ratio: 1.7
Medulla [8]
  Drug uptake: 3.34
Caudate [9]
  Drug uptake: 3.93
Putamen [10]
  Drug uptake: 5.21
[11]
  Drug uptake: 2.03
Putamen [12]
  Drug uptake: 5.25
[13]
  Drug uptake: 3.5
Pons [14]
  Drug uptake: 4.03
Thalamus [15]
  Drug uptake: 3.48
Midbrain [16]
  Drug uptake: 6.06
Midbrain [17]
  Drug uptake: 6.1
[18]
  Drug uptake: 2.89
Medulla [19]
  Drug uptake: 0.02
Putamen [20]
  Drug uptake: 0.3
Thalamus [21]
  Drug uptake: 4.82
Thalamus [22]
  Drug uptake: 4.64
Midbrain [23]
  Drug uptake: 1.48
Putamen [24]
  Drug uptake: 3.82
[25]
  Drug uptake: 4.29
Medulla [26]
  Drug uptake: 0.42
Putamen [27]
  Drug uptake: 3.27
Medulla [28]
  Drug uptake: 3.58
[29]
  Ratio: 1
[30]
  Ratio: 1.2
Medulla [31]
  Drug uptake: 3.68
[32]
  Ratio: 0.7
Thalamus [33]
  Drug uptake: 3.88
Medulla [34]
  Drug uptake: 5.92
Midbrain [35]
  Drug uptake: 6.14
[36]
  Drug uptake: 4.16
[37]
  Drug uptake: 4.19
[38]
  Ratio: 1.7
[39]
  Ratio: 1.1
[40]
  Ratio: 2.3
Pons [41]
  Drug uptake: 4.59
[42]
  Drug uptake: 2.93
[43]
  Ratio: 2.2
Pons [44]
  Drug uptake: 3.36
[45]
  Drug uptake: 2.81
Caudate [46]
  Drug uptake: 3.83
Putamen [47]
  Drug uptake: 3.92
Putamen [48]
  Drug uptake: 1.34
[49]
  Ratio: 0.9
Thalamus [50]
  Drug uptake: 5.46
Thalamus [51]
  Drug uptake: 4.62
[52]
  Drug uptake: 3.74

## O=C(OCC[18F])C1C2CCC(CC1c1cccc(/C=C\I)c1)N2 (stereo not given)
Medulla [2]
  Drug uptake: 2.68
[3]
  Ratio: 0.7
Caudate [4]
  Drug uptake: 2.75
[53]
  Ratio: 1.5
Midbrain [5]
  Drug uptake: 3.24
[54]
  Ratio: 1.1
[6]
  Drug uptake: 1.57
[55]
  Ratio: 1.1
[7]
  Ratio: 1.8
[56]
  Drug uptake: 0.16
[57]
  Ratio: 1.6
Medulla [8]
  Drug uptake: 2.32
Caudate [9]
  Drug uptake: 2.5
Putamen [10]
  Drug uptake: 3.88
[58]
  Drug uptake: 0.12
[11]
  Drug uptake: 1.51
Putamen [12]
  Drug uptake: 3.33
[59]
  Ratio: 1
Pons [14]
  Drug uptake: 2.65
Thalamus [15]
  Drug uptake: 2.2
Midbrain [16]
  Drug uptake: 4.71
[60]
  Drug uptake: 0.11
Midbrain [17]
  Drug uptake: 4.91
[61]
  Drug uptake: 0.17
[62]
  Drug uptake: 0.06
Medulla [19]
  Drug uptake: 0
Putamen [20]
  Drug uptake: 0.1
Thalamus [21]
  Drug uptake: 3.58
Thalamus [22]
  Drug uptake: 3.48
[63]
  Drug uptake: 0.12
Midbrain [23]
  Drug uptake: 0.54
Putamen [24]
  Drug uptake: 2.63
Medulla [26]
  Drug uptake: 0.13
Putamen [27]
  Drug uptake: 2.35
Medulla [28]
  Drug uptake: 2.5
[29]
  Ratio: 0.8
[30]
  Ratio: 1.2
Medulla [31]
  Drug uptake: 2.54
[32]
  Ratio: 0.7
Thalamus [33]
  Drug uptake: 2.65
Medulla [34]
  Drug uptake: 4.05
Midbrain [35]
  Drug uptake: 4.85
[38]
  Ratio: 1.7
[39]
  Ratio: 0.9
Pons [41]
  Drug uptake: 3.13
[43]
  Ratio: 2.2
Pons [44]
  Drug uptake: 2.25
Caudate [46]
  Drug uptake: 2.26
Putamen [47]
  Drug uptake: 2.67
Putamen [48]
  Drug uptake: 0.44
Thalamus [50]
  Drug uptake: 4.29
Thalamus [51]
  Drug uptake: 3.16
[52]
  Drug uptake: 2.89
